Results as given in patent publication US9745299B2, “Substituted tricyclic benzimidazoles as kinase inhibitors” (SELVITA SA, priority 2012, dated 2017).

Columns and labels:
CDK9/CyclinT = molecular target: T1, CDK9/CyclinT (Homo sapiens, UniProt P50750); test: ADP-Glo Kinase Assay, CDK9/CyclinT; format: biochemical; details: read-out: % inhibition at 1 μM CDK9/CyclinT; note: ATP at apparent Km (26 µM)
T1 construct: purchased Proqinase, Freiburg, Germany
Procedure: (§1) Testing of the compounds described in this invention was carried out using the ADP-Glo™ Kinase Assay from Promega Corporation (Madison, Wis., USA).
(§2) The ADP-Glo™ Kinase Assay is a luminescent ADP detection assay to measure kinase activity by quantifying the amount of ADP produced during a kinase reaction. The kinase assay is performed in kinase assay buffer (5 mM MOPS, pH 7.5, 5 mM MgCl2, 0.4 mM EDTA, 1.5 mM DTT). Test samples initially dissolved in DMSO at 10 mM were diluted with the assay buffer to 1000 nM. A 30 μL volume/well of a mixture of substrates containing ATP (final ATP concentration in each kinase assay was equal to its apparent ATP Km).
(§3) The assay was performed in two steps: first, after the kinase reaction, an equal volume of ADP-Glo™ Reagent was added to terminate the kinase reaction and deplete the remaining ATP. Second, the Kinase Detection Reagent was added to simultaneously convert ADP to ATP and allowed the newly synthesized ATP to be measured using a luciferase/luciferin reaction. The luminescent signal generated was proportional to the ADP concentration produced and was correlated with kinase activity.

HCT116 cells = test: MTS viability assay, HCT116; format: cell-based; details: Homo sapiens, HCT-116, HCT116, 72 hour incubation, read-out: IC50 [μM] HCT116 ED50
Source text: (§4) The viability of CDK8 expressing cells can be evaluated using a tetrazolium salt reduction cell-based assay. In viable cells this colorimetric assay can measure mitochondrial reduction of a tetrazolium component (MTS) into an […] formazan product. For MTS viability assay, human colon cancer cell lines were used (SW480 and HCT116 cell lines), containing elevated levels of CDK8 protein and highly dependent on its expression for proliferation [see, Firenstein et al. Nature 455 (25):547-551, (2008)]. These cell lines were used to determine the activity of the compounds provided herein to inhibit CDK8 in intact cells. Human tumor cell lines were obtained from ATCC (Rockville Md. USA). In each case, and by methods known to those practiced in the art of cell culture, vaiability was measured after 72 hour incubation with the compounds provided herein using a standard MTS protocol (CellTiter 96® AQueous Non-Radioactive Cell Proliferation Assay).
(§5) Briefly, cells were plated at 10,000-20,000 cells per well in DMEM medium supplemented with 10% fetal bovine serum. The compound plate was set up by aliquoting into column 1 of a 96-well plate, the negative control (DMSO), aliquoting into column 12 the positive control, and titrating the test compound in serial dilutions into columns 2-11. An aliquot from each well of the compound plate was transferred to the plated cells and then incubated at 37° C. in 5% CO2. 20 μL of MTS tetrazolium was added to each well of optical plate and the cells were incubated at 37° C. in 5% CO2 for 2 hours. The absorbance was measured at 490 nm using a microplate reader.

SW480 cells = test: MTS viability assay, SW480; format: cell-based; details: Homo sapiens, SW480, 72 hour incubation, read-out: IC50 [μM] SW-480 ED50
Source text: as §4, §5

CDK8/CyclinC = molecular target: T2, CDK8/CyclinC (Homo sapiens, UniProt P49336); test: ADP-Glo Kinase Assay, CDK8/CyclinC; format: biochemical; details: read-out: % inhibition at 1 μM CDK8/CyclinC; note: ATP at apparent Km (53 µM)
T2 construct: purchased ProQinase, Freiburg, Germany
T2 sequence (P49336 whole entry): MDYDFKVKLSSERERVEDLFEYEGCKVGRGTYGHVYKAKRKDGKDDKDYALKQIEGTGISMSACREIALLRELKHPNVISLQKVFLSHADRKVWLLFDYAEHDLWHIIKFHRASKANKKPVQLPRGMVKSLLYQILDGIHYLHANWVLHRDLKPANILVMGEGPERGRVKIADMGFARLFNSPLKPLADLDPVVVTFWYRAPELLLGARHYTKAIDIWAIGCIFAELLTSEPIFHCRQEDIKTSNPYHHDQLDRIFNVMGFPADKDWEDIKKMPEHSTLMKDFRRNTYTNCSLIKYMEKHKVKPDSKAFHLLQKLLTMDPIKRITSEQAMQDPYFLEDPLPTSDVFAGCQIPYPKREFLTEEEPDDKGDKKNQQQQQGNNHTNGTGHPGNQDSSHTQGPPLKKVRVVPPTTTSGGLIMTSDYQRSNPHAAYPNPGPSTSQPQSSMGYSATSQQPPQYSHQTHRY
T2 sequence (P24863 whole entry partner): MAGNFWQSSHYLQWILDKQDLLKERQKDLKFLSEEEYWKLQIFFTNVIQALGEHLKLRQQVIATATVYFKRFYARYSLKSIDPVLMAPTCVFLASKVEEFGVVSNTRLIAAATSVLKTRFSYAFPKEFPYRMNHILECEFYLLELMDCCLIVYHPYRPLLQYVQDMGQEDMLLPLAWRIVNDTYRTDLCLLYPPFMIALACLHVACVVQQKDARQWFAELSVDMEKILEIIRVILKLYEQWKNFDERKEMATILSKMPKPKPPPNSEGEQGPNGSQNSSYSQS
Procedure: as §1, §2, §3

CDK2/CyclinE = molecular target: T3, CDK2/CyclinE (Homo sapiens, UniProt P24941); test: ADP-Glo Kinase Assay, CDK2/CyclinE; format: biochemical; details: read-out: % inhibition at 1 μM CDK2/CyclinE
T3 construct: purchased Millipore, Billerica, Mass., USA
Procedure: as §1, §2, §3

T1 sequence (P50750 whole entry): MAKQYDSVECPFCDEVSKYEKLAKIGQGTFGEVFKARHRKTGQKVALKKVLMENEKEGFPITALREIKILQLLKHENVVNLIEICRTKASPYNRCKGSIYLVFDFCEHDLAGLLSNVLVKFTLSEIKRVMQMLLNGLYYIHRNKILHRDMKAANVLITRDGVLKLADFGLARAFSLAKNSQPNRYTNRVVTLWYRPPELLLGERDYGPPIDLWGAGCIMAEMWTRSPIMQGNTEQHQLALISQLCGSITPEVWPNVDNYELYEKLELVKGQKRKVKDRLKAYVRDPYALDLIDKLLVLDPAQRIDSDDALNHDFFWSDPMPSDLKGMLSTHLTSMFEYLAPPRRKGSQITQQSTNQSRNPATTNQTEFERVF
T1 sequence (O60563 whole entry partner): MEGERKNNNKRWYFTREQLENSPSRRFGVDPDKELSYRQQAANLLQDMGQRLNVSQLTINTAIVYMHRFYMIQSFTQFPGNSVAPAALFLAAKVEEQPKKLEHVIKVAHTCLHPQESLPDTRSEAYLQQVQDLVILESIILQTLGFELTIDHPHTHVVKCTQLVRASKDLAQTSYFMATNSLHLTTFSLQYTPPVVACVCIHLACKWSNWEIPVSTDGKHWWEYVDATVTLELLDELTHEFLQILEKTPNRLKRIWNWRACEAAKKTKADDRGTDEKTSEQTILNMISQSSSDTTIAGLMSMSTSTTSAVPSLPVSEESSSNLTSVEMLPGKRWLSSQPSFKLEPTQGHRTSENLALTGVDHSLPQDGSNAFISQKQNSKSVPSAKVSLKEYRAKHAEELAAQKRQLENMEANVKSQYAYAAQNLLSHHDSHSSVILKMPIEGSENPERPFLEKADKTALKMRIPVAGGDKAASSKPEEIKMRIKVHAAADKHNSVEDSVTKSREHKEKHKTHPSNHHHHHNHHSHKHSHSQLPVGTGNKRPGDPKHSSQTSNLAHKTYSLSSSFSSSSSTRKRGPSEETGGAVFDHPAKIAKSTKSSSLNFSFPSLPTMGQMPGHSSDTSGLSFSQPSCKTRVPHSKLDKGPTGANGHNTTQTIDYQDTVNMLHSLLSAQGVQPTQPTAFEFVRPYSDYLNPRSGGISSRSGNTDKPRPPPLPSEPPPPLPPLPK

inhibition at 1 µM (CDK9/CyclinT)	IC50 (HCT116 cells)	IC50 (SW480 cells)	inhibition at 1 µM (CDK8/CyclinC)	inhibition at 1 µM (CDK2/CyclinE)	Compound
61%	0.3 µM	1.1 µM	97%	44%	N[C@@H]1CCN(c2nc3c(Br)c(Br)c(Br)c4c3n2CCC4)C1 [Example 1AE]
	1.3 µM	1.8 µM			NCC1CN(c2nc3c(Br)c(Br)c(Br)c4c3n2CCC4)CCO1 (centres unmarked) [Example 1AF]
42%	1.3 µM	0.5 µM	82%	33%	NC1CCN(c2nc3c(Br)c(Br)c(Br)c4c3n2CCC4)CC1 [Example 1AG]
2%	1.7 µM	1.8 µM	93%	0%	Cc1c(Br)c(Br)c2c3c1nc(N1CC[C@@H](N)C1)n3CCC2 [Example 1AK]
	5.3 µM	1.8 µM			Cc1c(Br)c(Br)c2c3c1nc(N[C@H]1CCNC1)n3CCC2 [Example 1AL]
10%	2.4 µM		61%		COc1c(Br)c2c3c(nc(N4CCNCC4)n3CCC2)c1Br [Example 1AN]
15%			65%		Cc1c(Br)c(Br)c2c3c1nc(N1CCC(N)CC1)n3CCC2 [Example 1AP]
12%	0.2 µM	1.1 µM	90%		CC1CCc2c(Br)c(Br)c(Br)c3nc(N4CCNCC4)n1c23 (centres unmarked) [Example 1AU]
41%			57%	0%	Brc1c(Br)c2c3c(nc(N[C@H]4CCCNC4)n3CCC2)c1Br [Example 1AW]
	1.6 µM		61%		Cc1c(Br)c(Br)c2c3c1nc(N1CCCNCC1)n3CCC2 [Example 1AZ]
	1.3 µM	0.5 µM			N[C@@H]1CCCC[C@H]1Nc1nc2c(Br)c(Br)c(Br)c3c2n1CCC3 [Example 1B]
20%	1.9 µM	2.7 µM	89%	2%	CC1CNCCN1c1nc2c(Br)c(Br)c(Br)c3c2n1CCC3 (centres unmarked) [Example 1E]
45%	0.7 µM	1.1 µM	96%	29%	N[C@H]1CCN(c2nc3c(Br)c(Br)c(Br)c4c3n2CCC4)C1 [Example 1G]
8%			67%	0%	NCC1CCCN1c1nc2c(Br)c(Br)c(Br)c3c2n1CCC3 (centres unmarked) [Example 1H]
	1.5 µM				NC1CCCN(c2nc3c(Br)c(Br)c(Br)c4c3n2CCC4)C1 (centres unmarked) [Example 1I]
	0.5 µM				Brc1c(Br)c2c3c(nc(NC4CCNCC4)n3CCC2)c1Br [Example 1J]
9%	1.1 µM	1.4 µM	81%	19%	Brc1c(Br)c2c3c(nc(NC4CCNC4)n3CCC2)c1Br (centres unmarked) [Example 1L]
0%	1.1 µM	1.5 µM	59%	6%	NC1CCCN(c2nc3c(Br)c(Br)c(Br)c4c3n2CCC4)CC1 (centres unmarked) [Example 1M]
	4.3 µM		49%		Brc1cc2nc(N3CCNCC3)n3c2c(c1Br)CCC3 [Example 1N]
	1.3 µM				Cc1c(Br)c(Br)c2c3c1nc(NCCN)n3CCC2 [Example 1O]
	1.4 µM				Cc1c(Br)c2c3c(nc(NCCN)n3CCC2)c1Br [Example 1P]
4%	1.7 µM	2.5 µM	54%		Cc1c(Br)c(Br)c2nc(N3CCNCC3)n3c2c1CCC3 [Example 1S]
	1.6 µM				NCCNc1nc2c([N+](=O)[O-])c(Br)c(Br)c3c2n1CCC3 [Example 1U]
26%			94%	12%	O[C@@H]1CCN(c2nc3c(Br)c(Br)c(Br)c4c3n2CCC4)C1 [Example 3AC]

inhibition at 1 µM (CDK9/CyclinT)	IC50 (HCT116 cells)	IC50 (SW480 cells)	inhibition at 1 µM (CDK8/CyclinC)	inhibition at 1 µM (CDK2/CyclinE)	Compound
0%			76%	0%	Cc1c(Br)c(Br)c2c3c1nc(N1CCNC(C)C1)n3CCC2 (centres unmarked) [Example 3AH]
-9%			75%	0%	Cc1c(Br)c(Br)c2c3c1nc(N1CCN(C)CC1)n3CCC2 [Example 3AK]
18%			76%		CN(C)C1CCN(c2nc3c(Br)c(Br)c(Br)c4c3n2CCC4)C1 (centres unmarked) [Example 3AL]
21%			85%	4%	O[C@H]1CCN(c2nc3c(Br)c(Br)c(Br)c4c3n2CCC4)C1 [Example 3AN]
22%			93%	16%	OC1CCN(c2nc3c(I)c(Br)c(Br)c4c3n2CCC4)CC1 [Example 3AO]
9%			81%		CCN(CC)c1nc2c(C)c(Br)c(Br)c3c2n1CCC3 [Example 3AP]
			75%		Cc1c(Br)c(Br)c2c3c1nc(N1CCSCC1)n3CCC2 [Example 3AR]
			82%		Cc1c(Br)c(Br)c2c3c1nc(N1CCN[C@H](C)C1)n3CCC2 [Example 3AT]
			76%		Cc1c(Br)c(Br)c2c3c1nc(N1CCOCC1)n3CCC2 [Example 3AU]
			45%		Brc1c(Br)c2c3c(nc(Nc4ccncc4)n3CCC2)c1Br [Example 3B]
			59%		Brc1c(Br)c2c3c(nc(Nc4ccccc4)n3CCC2)c1Br [Example 3C]
3%			64%	3%	Brc1c(Br)c2c3c(nc(NC4CCCCC4)n3CCC2)c1Br [Example 3E]
			67%		OCCCNc1nc2c(Br)c(Br)c(Br)c3c2n1CCC3 [Example 3F]
			80%		Brc1c(Br)c2c3c(nc(N4CCOCC4)n3CCC2)c1Br [Example 3G]
	2.2 µM				CN(C)CCNc1nc2c(Br)c(Br)c(Br)c3c2n1CCC3 [Example 3K]
6%			54%		Brc1c(Br)c2c3c(nc(NCCCN4CCCC4)n3CCC2)c1Br [Example 3L]
18%			58%		CC1(C)CN(c2nc3c(Br)c(Br)c(Br)c4c3n2CCC4)CCN1 [Example 3N]
16%			89%	7%	CC1CCCN1c1nc2c(I)c(Br)c(Br)c3c2n1CCC3 (centres unmarked) [Example 3S]
24%			92%	9%	OCC1CCCN(c2nc3c(Br)c(Br)c(Br)c4c3n2CCC4)C1 (centres unmarked) [Example 3U]
41%			92%	9%	CCN(CC)c1nc2c(I)c(Br)c(Br)c3c2n1CCC3 [Example 3X]
17%			69%	21%	Nc1nc2c(I)c(Br)c(Br)c3c2n1CCC3 [Example 3Y]
0%			75%	8%	COC1CCN(c2nc3c(Br)c(Br)c(Br)c4c3n2CCC4)CC1 [Example 4A, 7,8,9-tribromo-2-(4-methoxypiperidin-1-yl)-5,6-dihydro-4H-imidazo[4,5,1-ij]quinoline]
			66%		Cc1c(Br)c(Br)c2c3c1nc(C1CCN(C(C)C)CC1)n3CCC2 [Example 7D]
